Assay results published in BindingDB's records for doi:10.1016/j.ejmech.2014.06.070 (The University of Newcastle, 2014).

Assay: Inhibition of Dynamin 1 in serum-starved human U2OS cells assessed as inhibition of clathrin-mediated […]-cojugated transferrin uptake pretreated for 30 mins by high-content imaging method

Point of comparison: `O=C1C=C(Nc2ccccc2C(=O)O)C(=O)C=C1Nc1ccccc1C(=O)O` [2,2'-(3,6-dioxocyclohexa-1,4-diene-1,4-diyl)bis(azanediyl)dibenzoic acid], IC50 162 µM. Against it:
- O=C1C=C(NCc2ccccc2)C(=O)C=C1NCc1ccccc1 — within 1.5-fold, 120 µM
- O=C1C=C(Nc2cccc(C(=O)O)c2)C(=O)C=C1Nc1cccc(C(=O)O)c1 — higher, > 300 µM
- O=C1C=C(Nc2ccc(O)cc2)C(=O)C=C1Nc1ccc(O)cc1 — 4.5-fold lower, 36 µM
- O=C1C=C(Nc2ccc(C(=O)O)cc2)C(=O)C=C1Nc1ccc(C(=O)O)cc1 — within 1.5-fold, 200 µM
